# Results: ChEMBL document CHEMBL5120940, “Indolactam Dipeptides as Nanomolar Gli Inhibitors” (ACS Med Chem Lett, 2022)
# Calls of active or inactive are those of the source. The calls are words filed in the database; no cut-off is given here.
# System: Shh Light II
# Assay: Inhibition of GLI in SAG induced mouse Shh Light II cells assessed as residual Smo-dependent Gli luciferase activity in starvation medium at 100 nM incubated for 30 hrs by dual luciferase assay
# Format: cell-based
# Conditions: not given
row,Structure (SMILES),Activity [%]
1,C=CC(C)(C)c1ccc2c3c(c[nH]c13)C[C@@H](CO)NC(=O)[C@H](C(C)C)N2C [PENDOLMYCIN],60
2,CS(=O)(=O)c1ccc(C(=O)Nc2ccc(Cl)c(-c3ccccn3)c2)c(Cl)c1 [VISMODEGIB],43
3,CCC(C)[C@H]1C(=O)N[C@H](CO)Cc2c[nH]c3cccc(c23)N1C (some centres not stated),53
4,COC(=O)[C@@H]1Cc2c[nH]c3cccc(c23)N(C)[C@@H](C(C)C)C(=O)N1,99
5,CCCCCCn1cc2c3c(cccc31)N(C)[C@@H](C(C)C)C(=O)N[C@H](CO)C2,83
6,CC(C)[C@H]1C(=O)N[C@H](CO)Cc2c[nH]c3c(Br)ccc(c23)N1C,70
7,COC[C@@H]1Cc2cn(C)c3cccc(c23)N(C)[C@@H](C(C)C)C(=O)N1,86
8,CC(C)[C@H]1C(=O)N[C@H](CO)Cc2cn(C)c3cccc(c23)N1C,66
9,CC(C)[C@H]1C(=O)N[C@H](CO)Cc2c[nH]c3cccc(c23)N1C [INDOLACTUM],68
10,CC(C)[C@H]1C(=O)N[C@H](CO)Cc2cn(C(C)C)c3cccc(c23)N1C,96
11,C=C[C@@](C)(CCC=C(C)C)c1ccc2c3c(c[nH]c13)C[C@@H](CO)NC(=O)[C@H](C(C)C)N2C,90
12,CC(C)[C@H]1C(=O)N[C@@H](CO)Cc2c[nH]c3cccc(c23)N1C,100
13,CC(=O)n1cc2c3c(cccc31)N(C)[C@@H](C(C)C)C(=O)N[C@H](CO)C2,73

# System: not listed separately
# Assay: Inhibition of GLI in SAG induced mouse C3H10T1/2 cells assessed reduction Gli-dependent differentiation by measuring ALP activity incubated for 48 hrs by chemiluminescence assay
# Format: cell-based
# Conditions: C3H 10T1/2, 48 h
row,Structure (SMILES),IC50 [µM]
1,CS(=O)(=O)c1ccc(C(=O)Nc2ccc(Cl)c(-c3ccccn3)c2)c(Cl)c1 [VISMODEGIB],0.058
2,CC(C)[C@H]1C(=O)N[C@H](CO)Cc2c[nH]c3cccc(c23)N1C [INDOLACTUM],0.171
3,CC(C)[C@H]1C(=O)N[C@@H](CO)Cc2c[nH]c3cccc(c23)N1C,> 5

# More lines, now with the values ahead:
row,IC50 [µM],Structure (SMILES)
1,0.03,CCC(C)[C@H]1C(=O)N[C@H](CO)Cc2c[nH]c3cccc(c23)N1C (some centres not stated)
2,0.027,CCCCCCn1cc2c3c(cccc31)N(C)[C@@H](C(C)C)C(=O)N[C@H](CO)C2
3,0.498,CC(C)[C@H]1C(=O)N[C@H](CO)Cc2cn(C)c3cccc(c23)N1C

# System: not listed separately
# Assay: Inhibition of GLI in mouse ASZ001 cells assessed as reduction in cell viability in starvation medium incubated for 48 hrs by CellTiter assay
# Format: cell-based
# Conditions: ASZ001, 48 h
row,Structure (SMILES),IC50 [µM]
1,CS(=O)(=O)c1ccc(C(=O)Nc2ccc(Cl)c(-c3ccccn3)c2)c(Cl)c1 [VISMODEGIB],0.002
2,CCCCCCn1cc2c3c(cccc31)N(C)[C@@H](C(C)C)C(=O)N[C@H](CO)C2,0.0005
3,CC(C)[C@H]1C(=O)N[C@H](CO)Cc2cc(NC(=O)/C=C/C=C/c3ccc(C(F)(F)F)cc3)ccc2N1C (stereo in doubt),0.00016

# System: ASZ001
# Assay: Inhibition of GLI in mouse ASZ001 cells assessed as reduction in cell viability in starvation medium at 1.5 uM incubated for 48 hrs by CellTiter assay relative to control
# Format: cell-based
# Conditions: not given
row,Structure (SMILES),inhibition [%]
1,CCCCCCn1cc2c3c(cccc31)N(C)[C@@H](C(C)C)C(=O)N[C@H](CO)C2,38
2,CC(C)[C@H]1C(=O)N[C@H](CO)Cc2c[nH]c3cccc(c23)N1C [INDOLACTUM],62

# System: not listed separately
# Assay: Inhibition of GLI in SAG induced mouse Sufu-KO-LIGHT cells assessed as residual Smo-independent Gli luciferase activity in starvation medium incubated for 30 hrs by dual luciferase assay
# Format: cell-based
# Conditions: not given
row,Structure (SMILES),IC50 [µM]
1,CS(=O)(=O)c1ccc(C(=O)Nc2ccc(Cl)c(-c3ccccn3)c2)c(Cl)c1 [VISMODEGIB],> 5
2,CC(C)[C@H]1C(=O)N[C@H](CO)Cc2c[nH]c3c(Br)ccc(c23)N1C,0.264
3,CC(C)[C@H]1C(=O)N[C@H](CO)Cc2c[nH]c3cccc(c23)N1C [INDOLACTUM],0.013
4,C=C[C@@](C)(CCC=C(C)C)c1ccc2c3c(c[nH]c13)C[C@@H](CO)NC(=O)[C@H](C(C)C)N2C,> 5
5,CC(C)[C@H]1C(=O)N[C@@H](CO)Cc2c[nH]c3cccc(c23)N1C,1.92

# Next, values leading:
row,IC50 [µM],Structure (SMILES)
1,> 5,C=CC(C)(C)c1ccc2c3c(c[nH]c13)C[C@@H](CO)NC(=O)[C@H](C(C)C)N2C [PENDOLMYCIN]
2,0.0068,CCC(C)[C@H]1C(=O)N[C@H](CO)Cc2c[nH]c3cccc(c23)N1C (some centres not stated)
3,0.077,COC(=O)[C@@H]1Cc2c[nH]c3cccc(c23)N(C)[C@@H](C(C)C)C(=O)N1
4,0.0079,CCCCCCn1cc2c3c(cccc31)N(C)[C@@H](C(C)C)C(=O)N[C@H](CO)C2
5,1.82,COC[C@@H]1Cc2cn(C)c3cccc(c23)N(C)[C@@H](C(C)C)C(=O)N1
6,0.02,CC(C)[C@H]1C(=O)N[C@H](CO)Cc2cn(C)c3cccc(c23)N1C
7,0.464,CC(C)[C@H]1C(=O)N[C@H](CO)Cc2cn(C(C)C)c3cccc(c23)N1C
8,0.655,CC(=O)n1cc2c3c(cccc31)N(C)[C@@H](C(C)C)C(=O)N[C@H](CO)C2

# System: not listed separately
# Assay: Inhibition of GLI in SAG induced mouse Shh Light II cells assessed as residual Smo-dependent Gli luciferase activity in starvation medium incubated for 30 hrs by dual luciferase assay
# Format: cell-based
# Conditions: not given
row,Structure (SMILES),IC50 [µM]
1,CS(=O)(=O)c1ccc(C(=O)Nc2ccc(Cl)c(-c3ccccn3)c2)c(Cl)c1 [VISMODEGIB],0.037
2,CC(C)[C@H]1C(=O)N[C@H](CO)Cc2c[nH]c3c(Br)ccc(c23)N1C,1.28
3,CC(C)[C@H]1C(=O)N[C@H](CO)Cc2c[nH]c3cccc(c23)N1C [INDOLACTUM],0.033
4,C=C[C@@](C)(CCC=C(C)C)c1ccc2c3c(c[nH]c13)C[C@@H](CO)NC(=O)[C@H](C(C)C)N2C,> 5
5,CC(C)[C@H]1C(=O)N[C@@H](CO)Cc2c[nH]c3cccc(c23)N1C,> 5

# The next lines start with the values.
row,IC50 [µM],Structure (SMILES)
1,> 5,C=CC(C)(C)c1ccc2c3c(c[nH]c13)C[C@@H](CO)NC(=O)[C@H](C(C)C)N2C [PENDOLMYCIN]
2,0.033,CCC(C)[C@H]1C(=O)N[C@H](CO)Cc2c[nH]c3cccc(c23)N1C (some centres not stated)
3,3.46,COC(=O)[C@@H]1Cc2c[nH]c3cccc(c23)N(C)[C@@H](C(C)C)C(=O)N1
4,0.113,CCCCCCn1cc2c3c(cccc31)N(C)[C@@H](C(C)C)C(=O)N[C@H](CO)C2
5,0.478,COC[C@@H]1Cc2cn(C)c3cccc(c23)N(C)[C@@H](C(C)C)C(=O)N1
6,0.069,CC(C)[C@H]1C(=O)N[C@H](CO)Cc2cn(C)c3cccc(c23)N1C
7,0.309,CC(C)[C@H]1C(=O)N[C@H](CO)Cc2cn(C(C)C)c3cccc(c23)N1C
8,0.195,CC(=O)n1cc2c3c(cccc31)N(C)[C@@H](C(C)C)C(=O)N[C@H](CO)C2

# System: NIH/3T3
# Assay: Inhibition of GLI in mouse NIH/3T3 cells assessed as reduction in CMV-driven firefly luciferase activity in starvation medium at 100 nM incubated for 30 hrs by Bright-Glo luciferase assay
# Format: cell-based
# Conditions: not given
row,Structure (SMILES),Activity
1,CCC(C)[C@H]1C(=O)N[C@H](CO)Cc2c[nH]c3cccc(c23)N1C (some centres not stated),Active
2,CCCCCCn1cc2c3c(cccc31)N(C)[C@@H](C(C)C)C(=O)N[C@H](CO)C2,Active
3,CC(C)[C@H]1C(=O)N[C@H](CO)Cc2cn(C)c3cccc(c23)N1C,Active
4,CC(C)[C@H]1C(=O)N[C@H](CO)Cc2c[nH]c3cccc(c23)N1C [INDOLACTUM],Active

# System: Sufu-KO-LIGHT
# Assay: Inhibition of GLI in SAG induced mouse Sufu-KO-LIGHT cells assessed as residual Smo-independent Gli luciferase activity in starvation medium at 100 nM incubated for 30 hrs by dual luciferase assay
# Format: cell-based
# Conditions: not given
row,Structure (SMILES),Activity [%]
1,C=CC(C)(C)c1ccc2c3c(c[nH]c13)C[C@@H](CO)NC(=O)[C@H](C(C)C)N2C [PENDOLMYCIN],46
2,CS(=O)(=O)c1ccc(C(=O)Nc2ccc(Cl)c(-c3ccccn3)c2)c(Cl)c1 [VISMODEGIB],96
3,CCC(C)[C@H]1C(=O)N[C@H](CO)Cc2c[nH]c3cccc(c23)N1C (some centres not stated),36
4,COC(=O)[C@@H]1Cc2c[nH]c3cccc(c23)N(C)[C@@H](C(C)C)C(=O)N1,67
5,CCCCCCn1cc2c3c(cccc31)N(C)[C@@H](C(C)C)C(=O)N[C@H](CO)C2,25
6,CC(C)[C@H]1C(=O)N[C@H](CO)Cc2c[nH]c3c(Br)ccc(c23)N1C,23
7,COC[C@@H]1Cc2cn(C)c3cccc(c23)N(C)[C@@H](C(C)C)C(=O)N1,69
8,CC(C)[C@H]1C(=O)N[C@H](CO)Cc2cn(C)c3cccc(c23)N1C,42
9,CC(C)[C@H]1C(=O)N[C@H](CO)Cc2c[nH]c3cccc(c23)N1C [INDOLACTUM],39
10,CC(C)[C@H]1C(=O)N[C@H](CO)Cc2cn(C(C)C)c3cccc(c23)N1C,78
11,C=C[C@@](C)(CCC=C(C)C)c1ccc2c3c(c[nH]c13)C[C@@H](CO)NC(=O)[C@H](C(C)C)N2C,47
12,CC(C)[C@H]1C(=O)N[C@@H](CO)Cc2c[nH]c3cccc(c23)N1C,78
13,CC(=O)n1cc2c3c(cccc31)N(C)[C@@H](C(C)C)C(=O)N[C@H](CO)C2,67
